Laboratory results taken from patent US9598387B2 (Southern Research Institute, priority 2012, dated 2017).

How the values were obtained:
[1] = biological target: T1, human D3 dopamine receptor (Homo sapiens (Human), UniProt P35462); assay: Radioligand binding (125I-IABN competition), D3; settings: for Ki: 125I-IABN competition, HEK cell membranes expressing human D3; for D2/D3 (D3 selectivity ratio, D2 Ki/D3 Ki): calculated D2 Ki/D3 Ki
Protocol: (§1) The affinities of the target compounds were determined using radioligand binding experiments. […] Competition curves were modeled for a single site. Data from competition dose-response curves were analyzed using Tablecurve program (Jandel). IC50 values were converted to equilibrium dissociation constants (Ki values) using the Cheng and Prusoff correction.

[2] = biological target: human D2-long dopamine receptor (Homo sapiens (Human), UniProt P14416); assay: Radioligand binding (125I-IABN competition), D2; settings: HEK cell membranes expressing human D2-long
Protocol: as §1

[3] = biological target: human D2 dopamine receptors (Homo sapiens (Human), UniProt P14416); assay: Whole Cell Adenylyl Cyclase Assay, D2; format: cell-based; settings: inhibition of forskolin (100 μM) stimulated cAMP, normalized to quinpirole; compound conc ≥10× Ki (per compound); mean ± S.E.M.
Protocol: (§2) The intrinsic activity of the compounds was evaluated by determining their ability to inhibit forskolin-dependent (100 μM) stimulation of adenylyl cyclase activity using a whole cell assay. A whole cell-cyclic AMP accumulation assay was performed with stably transfected HEK cells expressing human D2 or D3 dopamine receptors. This assay is an adaptation of an earlier published method (Su et al., Cyclic Nucleotide Res. 1976, 2, 257-285). Details regarding this method have been published (Chu, W. et al. Bioorg. Med. Chem. 2005, 13, 77-87; Taylor, M. et al. Synapse 2010, 64, 251-266). Confluent (60-80%) HEK cells transfected with recombinant D2-like dopamine receptors were grown in DMEM/10% fetal calf serum containing geneticin in […] flasks. The endogenous ATP pool is radioactively labeled by preincubating the cells in serum-free DMEM/25 mM Hepes medium containing 2 μCi/mL of [2,8-^3H]-adenine (20-Ci/mmol) in a 5% CO2 incubator at 37° C. for 75 min. The radioactive medium was removed by aspiration. Serum-free DMEM (5.6 mL) containing 25 mM HEPES, pH 7.4, and 0.1 mM of the phosphodiesterase inhibitor isobutylmethylxanthine was added to the flask. A […] aliquot of cells was removed and added to 50 μL of forskolin (100 μM) and 50 μL of test drug or quinpirole in DMEM-HEPES. The cells were incubated for 20 min at 37° C. (vortexing every 5 min). The reaction was terminated by the addition of 0.5 mL of 10% trichloroacetic acid (w/v) containing 1.0 mM unlabeled cyclic AMP as a recovery standard. Both the [^3H]-cyclic AMP and the [^3H]-ATP fractions were collected following separation using columns of Dowex AG-50W-X4 and alumina. The final yield of [^3H]-cyclic AMP is corrected for column recovery of unlabeled cyclic AMP determined spectrophotometrically (OD259). The results are reported as percent conversion of [^3H]-ATP into [^3H]-cyclic AMP. The values for the percent inhibition are reported as the actual percent of inhibition of the ^3H-cAMP accumulation relative to the assay performed in the absence of a test compound, minus basal activity. […] The percent maximum response is the value for the inhibition normalized to the value for the full agonist quinpirole.

[4] = biological target: T1, human D3 dopamine receptor; assay: Whole Cell Adenylyl Cyclase Assay, D3; format: cell-based; settings: inhibition of forskolin (100 μM) stimulated cAMP, normalized to quinpirole; compound conc ≥10× Ki (per compound); mean ± S.E.M.
Protocol: as §2

D2LR = D2LR (Homo sapiens (Human), UniProt P14416); assay: β-Arrestin Recruitment Assay, CHO-K1 DRD2L; format: cell-based; settings: antagonist vs EC80 6 nM Pergolide, CHO-K1 DRD2L cells; read-out: D2 IC50
Protocol: (§3) Antagonist potency of the compounds against agonist induced recruitment of β-arrestin by D3R and D2LR was measured using DiscoverRx PathHunter eXpress kits. […] After incubation at 37° C. for 90 min, the DiscoveRx detection reagent was added, the plates were incubated at room temperature for 60 min and the luminescence was measured on a Synergy 4 plate reader (BioTek). The data were plotted and the agonist EC80 values were calculated using GraphPad Prism software. For antagonist activity, the cells were plated as described above and treated with multiple concentrations (starting from 500 nM, half log dilution, 10 dose points) of the test compounds in Plating Reagent with 0.1% DMSO.

D3R [5] = biological target: T2, D3R (Homo sapiens (Human), UniProt P35462); assay: β-Arrestin Recruitment Assay, U2OS DRD3; format: cell-based; settings: for IC50: antagonist vs EC80 8 nM PD128907, U2OS DRD3 cells, read-out: D3 IC50; for D2 IC50/D3 IC50: ratio of β-arrestin IC50 values
Protocol: as §3

human D2 receptors = human D2 receptors (Homo sapiens (Human), UniProt P14416); assay: D2 Mitogenesis Functional Assay (3H-thymidine uptake, CHOp-D2 cells); format: cell-based
D3R [6] = biological target: T2, D3R; assay: D3 Mitogenesis Functional Assay (3H-thymidine uptake, CHOp-D3 cells); format: cell-based; settings: for EC50: CHOp-D3 cells, stimulation of mitogenesis, read-out: D3 Agonist EC50; for Emax at 10 µM: % maximum stimulation vs quinpirole (100%), read-out: D3 Agonist Emax; for D3 Antagonist Imax: inhibition of quinpirole stimulation of mitogenesis; for IC50: read-out: D3 Antagonist IC50
Procedure, shortened: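 CHO cells expressing human D3, serum-starved 24 h, then given compound (agonist mode) or antagonist plus 30 nM quinpirole final for 16 h at 37 °C. A 2 h [3H]thymidine pulse was used for uptake.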

human D2 dopamine receptors, sequence (P14416 whole entry): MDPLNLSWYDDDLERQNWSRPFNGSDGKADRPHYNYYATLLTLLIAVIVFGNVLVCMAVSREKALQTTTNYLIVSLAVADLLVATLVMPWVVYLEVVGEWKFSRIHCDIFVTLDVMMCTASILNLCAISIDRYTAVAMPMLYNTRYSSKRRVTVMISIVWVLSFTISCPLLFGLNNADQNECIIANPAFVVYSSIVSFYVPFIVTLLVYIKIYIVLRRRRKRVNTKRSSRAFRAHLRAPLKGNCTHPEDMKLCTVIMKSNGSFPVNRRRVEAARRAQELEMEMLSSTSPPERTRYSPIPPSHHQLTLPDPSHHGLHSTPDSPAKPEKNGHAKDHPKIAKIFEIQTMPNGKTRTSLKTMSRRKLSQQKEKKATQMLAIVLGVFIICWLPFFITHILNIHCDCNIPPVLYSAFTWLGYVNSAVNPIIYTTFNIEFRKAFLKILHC
D2LR, sequence (P14416 whole entry): as above
human D2-long dopamine receptor, sequence (P14416 whole entry): as above
human D2 receptors, sequence (P14416 whole entry): as above
T2 sequence (P35462 whole entry): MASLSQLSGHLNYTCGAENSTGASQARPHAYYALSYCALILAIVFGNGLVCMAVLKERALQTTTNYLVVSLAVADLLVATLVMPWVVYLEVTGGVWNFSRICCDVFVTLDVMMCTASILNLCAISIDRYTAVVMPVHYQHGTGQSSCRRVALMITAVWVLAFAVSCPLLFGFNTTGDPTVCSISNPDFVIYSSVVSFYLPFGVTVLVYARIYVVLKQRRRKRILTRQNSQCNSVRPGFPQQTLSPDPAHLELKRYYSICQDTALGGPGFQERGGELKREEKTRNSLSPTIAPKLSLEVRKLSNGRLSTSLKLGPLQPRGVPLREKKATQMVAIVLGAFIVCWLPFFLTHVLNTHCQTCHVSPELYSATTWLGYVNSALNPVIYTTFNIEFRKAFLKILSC
T1 sequence (P35462 whole entry): as above

| SMILES | Ki [1] [µM] | D2/D3 (D3 selectivity ratio, D2 Ki/D3 Ki) [1] | Ki [2] [µM] | D2 Cyclase % Inhibition Normalized [3] [%] | D3 Cyclase % Inhibition Normalized [4] [%] | IC50 (D2LR) [µM] | IC50 (D3R [5]) [µM] | D2 IC50/D3 IC50 (D3R [5]) | EC50 (human D2 receptors; CHOp-D2 cells, stimulation of mitogenesis, read-out: D2 Agonist EC50) [µM] | Emax at 10 µM (human D2 receptors; at 10 μM, % maximum stimulation vs quinpirole (100%), read-out: D2 Agonist Emax) [%] | D2 Antagonist Imax (human D2 receptors; at 10 μM, inhibition of quinpirole stimulation of mitogenesis) [% at 10 μM] | IC50 (human D2 receptors; read-out: D2 Antagonist IC50) [µM] | EC50 (D3R [6]) [µM] | Emax at 10 µM (D3R [6]) [%] | D3 Antagonist Imax (D3R [6]) [%] | IC50 (D3R [6]) [µM] |
| --- | --- | --- | --- | --- | --- | --- | --- | --- | --- | --- | --- | --- | --- | --- | --- | --- |
| Cc1cc(N2CCN(CCCCNC(=O)N3CCN(c4ccccc4)CC3)CC2)nc(C(C)(C)C)n1 [Compound 5, N-(4-(4-(2-(tert-Butyl)-6-methylpyrimidin-4-yl)piperazin-1-yl)butyl)-4-phenylpiperazine-1-carboxamide] | 0.0027 ± 0.0001 | 136 | 0.366 ± 0.018 | 54.5 ± 4.5 | 73.4 ± 11.0 | 0.376 ± 0.031 | 0.00386 ± 0.00251 | 97 |  |  |  |  |  |  |  |  |
| CC(C)(C)c1nc(N2CCN(CCCCNC(=O)N3CCN(c4ccccc4)CC3)CC2)cc(C(F)(F)F)n1 [Compound 8, N-(4-(4-(2-(tert-Butyl)-6-(trifluoromethyl)pyrimidin-4-yl)piperazin-1-yl)butyl)-4-phenylpiperazine-1-carboxamide] | 0.0027 ± 0.0007 | 174 | 0.47 ± 0.034 | −4.8 ± 4.1 | 60.7 ± 10.7 | > 0.5 | 0.00615 ± 0.00033 | >81 | > 10 | < 1 | 100 | 0.44 ± 0.16 | > 10 | 3 | 88.2 | 0.125 ± 0.037 |
| COc1ccc2c(c1)CN(C(=O)NCCCCN1CCN(c3cc(C(F)(F)F)nc(C(C)(C)C)n3)CC1)C2 [Compound 40, N-(4-(4-(2-(tert-Butyl)-6-(trifluoromethyl)pyrimidin-4-yl)piperazin-1-yl)butyl)-5-methoxyisoindoline-2-carboxamide] | 0.0023 ± 0.0005 | 432 | 0.994 ± 0.106 | −39.1 ± 12.5 | 30.0 ± 7.9 | 0.157 ± 0.011 | 0.0008 ± 0.00024 | 196 |  |  |  |  |  |  |  |  |
| CC(C)(C)c1nc(N2CCN(CCCCNC(=O)N3CCC(c4ccccc4)CC3)CC2)cc(C(F)(F)F)n1 [Compound 48, N-(4-(4-(2-(tert-Butyl)-6-(trifluoromethyl)pyrimidin-4-yl)piperazin-1-yl)butyl)-4-phenylpiperidine-1-carboxamide] | 0.011 ± 0.0024 | 147 | 1.62 ± 0.402 |  | 64.3 ± 10.4 | > 0.5 | 0.0281 ± 0.0049 | >18 |  |  |  |  | > 10 | < 5 | 81.2 | 2 ± 0.48 |
| CC(C)(C)c1nc(N2CCN(CCCCNC(=O)N3CCc4c([nH]c5ccccc45)C3)CC2)cc(C(F)(F)F)n1 [Compound 55] | 0.003 ± 0.0002 | 182 | 0.536 ± 0.118 | 6.3 ± 4.3 | 61.7 ± 6.4 | > 0.5 | 0.0262 ± 0.0102 | >19 |  |  |  |  |  |  |  |  |
| O=C(NCCCCN1CCN(c2ccnc3ccccc23)CC1)C1CCC(c2ccccc2)CC1 (stereo not drawn) [Compound 104, 4-Phenyl-N-(4-(4-(quinolin-4-yl)piperazin-1-yl)butyl)cyclohexanecarboxamide] | 0.0353 ± 0.0048 | 146 | 5.16 ± 0.822 |  | 53.4 ± 13.0 | > 0.5 | 0.0337 ± 0.0143 | >15 |  |  |  |  |  |  |  |  |
| CN(C)Cc1c(C(=O)NCCCCN2CCN(c3cc(C(F)(F)F)nc(C(C)(C)C)n3)CC2)nc2ccccn12 [Compound 120, N-(4-(4-(2-(tert-Butyl)-6-(trifluoromethyl)pyrimidin-4-yl)piperazin-1-yl)butyl)-3-((dimethylamino)methyl)imidazo[1,2-a]pyridine-2-carboxamide] | 0.0288 ± 0.0061 | 10 | 0.301 | 8.9 ± 5.0 | 47.4 ± 4.4 | 0.217 ± 0.01 | 0.0072 ± 0.00368 | 30 |  |  |  |  |  |  |  |  |
| CN(C)Cc1cccc2nc(C(=O)NCCCCN3CCN(c4cc(C(F)(F)F)nc(C(C)(C)C)n4)CC3)cn12 [Compound 121, N-(4-(4-(2-(tert-Butyl)-6-(trifluoromethyl)pyrimidin-4-yl)piperazin-1-yl)butyl)-5-((dimethylamino)methyl)imidazo[1,2-a]pyridine-2-carboxamide] | 0.0273 ± 0.0034 | 11 | 0.298 |  |  | 0.281 ± 0.043 | 0.0288 ± 0.0027 | 10 |  |  |  |  |  |  |  |  |
